From patent publication US8940310B2, “Methods of treatment using TLR7 and/or TLR9 inhibitors” (Dynavax Technologies Corporation, priority 2010, dated 2015)
Marks after values point to notes of the source that are not given here.

Key:
[1] = High dosages of IRPs in mice (weight, histology); type: in vivo, BALB/c mice; conditions: for Liver: Liver changes, number of animals / Liver: Mixed cell infiltration, number of animals / Liver: No significan changes, number of animals / Right Kidney: No significant changes, number of animals / Right Kidney: Tubular basophilia, number of animals / Right Kidney: Tubular changes, number of animals: 6 animals; for Heart: No significant changes, number of animals: tissue missing in two animals
Experimental: To test the activity of IRPs at high dosages in mice, IRPs or a control (saline) were subcutaneously administered to BALB/c mice at a dosage of 4 mg/kg, 20 mg/kg, 50 mg/kg, or 100 mg/kg on days 1, 4, 7, and 10 (n=5 per group). Mice were weighed prior to administration and on days 2, 4, 7, 9, and 11. Serum cytokines were assayed at two hours post the first and third injections and 24 hours post the fourth injection. Organs were harvested at the end of the study, and organ weights and tissues levels of the oligonucleotides were determined. In addition, histological evaluation of the liver, kidney, and heart was performed.
Mice were weighed prior to administration and on days 1, 3, 4, 6, 7, and 9. Organs were harvested at the end of the study, and organ weights and tissues levels of the oligonucleotides were determined. In addition, histological evaluation of the liver, kidney, and heart was performed.

human B-cells = assay: Human B-cells cultured in the presence of IRPs, IL-6
Experimental: For the human B-cell assay, B-cells were purified from total blood cells obtained from healthy donors using magnetic beads (CD19 positive). Cells were resuspended in fresh medium (RPMI 1640 with 10% fetal calf serum, 50 units/mL penicillin, 50 μg/mL streptomycin, and 2 mM glutamine). At 48 hours, supernatants were collected and cytokine levels, IL-6, were measured using immunoassay.
To further investigate the effect of IRPs on B-cell stimulatory activity, a wide variety of IRP sequences were assayed for IL-6, along with positive and negative controls. The experiment was performed as described in Example 1 using doses of IRP of either 4.0 μM or 2.0 μM. The positive control was an immunostimulatory sequence (ISS) with SEQ ID NO:157. […] The results are presented as the average normalized IL-6 response over several experiments.

[2] = High dosages of IRPs in rats (weight, deaths, histology); type: in vivo, Sprague Dawley rats; conditions: for Heart: Cell Vacuolation, number of animals / Heart: Hemorrhage, number of animals / Heart: Mononuclear Cell Infiltration, number of animals / Heart: Necrosis, number of animals / Heart: No significant changes, number of animals / Liver: Liver changes, number of animals / Liver: Mixed cell infiltration, number of animals / Liver: Necrosis, number of animals / Liver: No significant changes, number of animals / Liver: Vacuolation, number of animals / Right Kidney: Hydronephrosis, number of animals / Right Kidney: Mineralization, number of animals / Right Kidney: Necrosis, number of animals / Right Kidney: No significant changes, number of animals / Right Kidney: Tubular basophilia, number of animals / Right Kidney: Tubular changes, number of animals: 6 animals
Experimental: To test the activity of IRPs at high dosages in rats, IRPs (SEQ ID NO:42 and SEQ ID NO:109) or a control (PBS) were subcutaneously administered to 8-9 weeks old, […], 3, 6, and 9 (n=6 per group). Rats were weighed prior to administration and on days 1, 3, 4, 6, 7, and 9. Organs were harvested at the end of the study, and organ weights and tissues levels of the oligonucleotides were determined. In addition, histolocial evaluation of the liver, kidney, and heart was performed.
Rats were weighed prior to administration and on days 1, 3, 6, 7, and 9. Organs were harvested at the end of the study, and organ weights and tissues levels of the oligonucleotides were determined. In addition, histological evaluation of the liver, kidney, and heart was performed.

[3] = Monomer and tetramer formation of IRPs, size-exclusion HPLC; type: physicochemical; conditions: 100 mg/mL in PBS and 0.5M KCl, room temperature, five weeks
Experimental: Solutions were prepared of the by mixing 100 mg/mL of the IRP sequences in PBS and 0.5M KCl and storing at room temperature for three to five weeks. The solutions were subsequently analyzed by size-exclusion HPLC.

[4] = 50 mg/kg, 0 = no change to 4 = severe
[5] = 100 mg/kg, 0 = no change to 4 = severe
[6] = rat, 10 mg/kg, 0 = no change to 4 = severe
[7] = rat, 90 mg/kg, 0 = no change to 4 = severe

5′-TGC TCC TGG AGI GGT TG-HEG-T-3′ (DNA TGCTCCTGGAGNGGTTGNT; inosine, internal HEG spacer, chemistry not fully specified) [SEQ ID NO:143]
Heart: Chronic inflammation, number of animals ([1]; 50 mg/kg): 2 | Heart: Mineralization, number of animals ([1]; 50 mg/kg): 1 | Heart: Chronic inflammation, mean severity score [1, 4]: 2.0 | Heart: Mineralization, mean severity score [1, 4]: 4.0 | Liver: Liver changes, mean severity score [1, 4]: 2.0 | Liver: Mixed cell infiltration, mean severity score [1, 4]: 3.0 | Right Kidney: Tubular basophilia, mean severity score [1, 4]: 2.0 | Liver: Liver changes, number of animals ([1]; 50 mg/kg): 6 | Liver: Mixed cell infiltration, number of animals ([1]; 50 mg/kg): 6 | Liver: No significan changes, number of animals ([1]; 50 mg/kg): 0 | Right Kidney: No significant changes, number of animals ([1]; 50 mg/kg): 5 | Right Kidney: Tubular basophilia, number of animals ([1]; 50 mg/kg): 1 | Right Kidney: Tubular changes, number of animals ([1]; 50 mg/kg): 0 | Heart: No significant changes, number of animals ([1]; 50 mg/kg): 1** | Heart: Chronic inflammation, number of animals ([1]; 100 mg/kg): 0 | Heart: Mineralization, number of animals ([1]; 100 mg/kg): 1 | Heart: Mineralization, mean severity score [1, 5]: 3.0 | Liver: Mixed cell infiltration, mean severity score [1, 5]: 1.0 | Liver: Liver changes, number of animals ([1]; 100 mg/kg): 0 | Liver: Mixed cell infiltration, number of animals ([1]; 100 mg/kg): 1 | Liver: No significan changes, number of animals ([1]; 100 mg/kg): 5 | Right Kidney: No significant changes, number of animals ([1]; 100 mg/kg): 6 | Right Kidney: Tubular basophilia, number of animals ([1]; 100 mg/kg): 0 | Right Kidney: Tubular changes, number of animals ([1]; 100 mg/kg): 0 | Heart: No significant changes, number of animals ([1]; 100 mg/kg): 3** | Normalized IL-6 Response (Percentage of Positive Control) (human B-cells; Experiment # 3, Max Conc 4.0 uM): 5% | B-cell stimulatory activity (human B-cells; FIG. 1C, percent IL-6 from CpG-ISS): low B-cell stimulatory activity | toxicity profile ([2]; rat histology): favorable toxicity profiles | Heart: Cell Vacuolation, number of animals ([2]; rat, 10 mg/kg): 0 | Heart: Hemorrhage, number of animals ([2]; rat, 10 mg/kg): 0 | Heart: Mononuclear Cell Infiltration, number of animals ([2]; rat, 10 mg/kg): 0 | Heart: Necrosis, number of animals ([2]; rat, 10 mg/kg): 0 | Heart: No significant changes, number of animals ([2]; rat, 10 mg/kg): 6 | Liver: Liver changes, number of animals ([2]; rat, 10 mg/kg): 0 | Liver: Mixed cell infiltration, number of animals ([2]; rat, 10 mg/kg): 5 | Liver: Necrosis, number of animals ([2]; rat, 10 mg/kg): 0 | Liver: No significant changes, number of animals ([2]; rat, 10 mg/kg): 1 | Liver: Vacuolation, number of animals ([2]; rat, 10 mg/kg): 2 | Right Kidney: Hydronephrosis, number of animals ([2]; rat, 10 mg/kg): 0 | Right Kidney: Mineralization, number of animals ([2]; rat, 10 mg/kg): 1 | Right Kidney: Necrosis, number of animals ([2]; rat, 10 mg/kg): 0 | Right Kidney: No significant changes, number of animals ([2]; rat, 10 mg/kg): 0 | Right Kidney: Tubular basophilia, number of animals ([2]; rat, 10 mg/kg): 0 | Right Kidney: Tubular changes, number of animals ([2]; rat, 10 mg/kg): 6 | Liver: Mixed cell infiltration, mean severity score [2, 6]: 1.4 | Liver: Vacuolation, mean severity score [2, 6]: 1.5 | Right Kidney: Mineralization, mean severity score [2, 6]: 2.0 | Right Kidney: Tubular changes, mean severity score [2, 6]: 1.1 | Heart: cellular vacuolation ([2]; rat, 90 mg/kg): present in some animals | Kidney: tubular basophilia ([2]; rat, 90 mg/kg): occurred | Liver: hepatocellular cytoplasmic vacuolation ([2]; rat, 90 mg/kg): hepatocellular cytoplasmic vacuolation | Heart: Cell Vacuolation, number of animals ([2]; rat, 90 mg/kg): 5 | Heart: Hemorrhage, number of animals ([2]; rat, 90 mg/kg): 0 | Heart: Mononuclear Cell Infiltration, number of animals ([2]; rat, 90 mg/kg): 0 | Heart: Necrosis, number of animals ([2]; rat, 90 mg/kg): 0 | Heart: No significant changes, number of animals ([2]; rat, 90 mg/kg): 1 | Liver: Liver changes, number of animals ([2]; rat, 90 mg/kg): 6 | Liver: Mixed cell infiltration, number of animals ([2]; rat, 90 mg/kg): 1 | Liver: Necrosis, number of animals ([2]; rat, 90 mg/kg): 0 | Liver: No significant changes, number of animals ([2]; rat, 90 mg/kg): 0 | Liver: Vacuolation, number of animals ([2]; rat, 90 mg/kg): 5 | Right Kidney: Hydronephrosis, number of animals ([2]; rat, 90 mg/kg): 0 | Right Kidney: Mineralization, number of animals ([2]; rat, 90 mg/kg): 2 | Right Kidney: Necrosis, number of animals ([2]; rat, 90 mg/kg): 0 | Right Kidney: No significant changes, number of animals ([2]; rat, 90 mg/kg): 0 | Right Kidney: Tubular basophilia, number of animals ([2]; rat, 90 mg/kg): 3 | Right Kidney: Tubular changes, number of animals ([2]; rat, 90 mg/kg): 6 | Heart: Cell Vacuolation, mean severity score [2, 7]: 1.0 | Liver: Liver changes, mean severity score [2, 7]: 2.1 | Liver: Mixed cell infiltration, mean severity score [2, 7]: 1.0 | Liver: Vacuolation, mean severity score [2, 7]: 2.7 | Right Kidney: Mineralization, mean severity score [2, 7]: 2.0 | Right Kidney: Tubular basophilia, mean severity score [2, 7]: 1.0 | Right Kidney: Tubular changes, mean severity score [2, 7]: 1.8 | fraction in monomer form [3]: 100%
